Measured values from patent US11013726B2 (Arbutus Biopharma Corporation, priority 2016, dated 2021).
Counter-ions that a name gives are not always drawn.

system: HBsAg; assay: HBsAg assay; format: cell-based, hepatitis B virus; settings: Hepatitis B virus, HepG2.2.15, 144 h, read-out: sAg EC50, μM, HepG2.2.15 cells, day 6
How it was run: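 HepG2.2.15 cells were treated with serially diluted compounds (0.5% DMSO), with medium and compound renewed after 2-3 days. Secreted HBsAg measured at day 6 by chemiluminescence immunoassay; EC50 from dose-response curves. Viability assessed in parallel by CellTiter-Glo.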

| Compound | EC50 [µM] |
| --- | --- |
| COc1nc2c(s1)CC(C(C)C)n1cc(C(=O)O)c(=O)cc1-2 (centres unmarked) [Example 87, 5-Isopropyl-2-methoxy-9-oxo-4,9-dihydro-5H-thiazolo[4,5-a]quinolizine-8-carboxylic acid] | 3.8 |
| COCc1nc2c(s1)CC(C(C)C)n1cc(C(=O)O)c(=O)cc1-2 (centres unmarked) [Example 88, 5-Isopropyl-2-(methoxymethyl)-9-oxo-4,9-dihydro-5H-thiazolo[4,5-a]quinolizine-8-carboxylic acid] | 3.1 |
| CC(C)(C)C1Cc2cc3c(cc2-c2cc(=O)c(C(=O)O)cn21)OCCCO3 (centres unmarked) [Example 90, 6-(Tert-butyl)-2-oxo-6,7,11,12-tetrahydro-2H,10H-[1,4]dioxepino[2,3-g]pyrido[2,1-a]isoquinoline-3-carboxylic acid] | 0.095 |
| CC(C)(C)C1Cc2cc3c(cc2-c2cc(=O)c(C(=O)O)cn21)OCC1(COC1)CO3 (centres unmarked) [Example 93, 6′-(Tert-butyl)-2′-oxo-6′,7′-dihydro-2′H,10′H,12′H-spiro[oxetane-3,11′-[1,4]dioxepino[2,3-g]pyrido[2,1-a]isoquinoline]-3′-carboxylic acid] | 0.42 |
| COCC1COc2cc3c(cc2OC1)-c1cc(=O)c(C(=O)O)cn1C(C(C)(C)C)C3 (centres unmarked) [Example 96, 6-(Tert-butyl)-11-(methoxymethyl)-2-oxo-6,7,11,12-tetrahydro-2H,10H-[1,4]dioxepino[2,3-g]pyrido[2,1-a]isoquinoline-3-carboxylic acid] | 0.14 |
| COCCOC1COc2cc3c(cc2OC1)-c1cc(=O)c(C(=O)O)cn1C(C(C)(C)C)C3 (centres unmarked) [Example 97, 6-(Tert-butyl)-11-(2-methoxyethoxy)-2-oxo-6,7,11,12-tetrahydro-2H,10H-[1,4]dioxepino[2,3-g]pyrido[2,1-a]isoquinoline-3-carboxylic acid] | 1.4 |
| C=C1COc2cc3c(cc2OC1)-c1cc(=O)c(C(=O)O)cn1C(C(C)(C)C)C3 (centres unmarked) [Example 98, 6-(Tert-butyl)-11-methylene-2-oxo-6,7,11,12-tetrahydro-2H,10H-[1,4]dioxepino[2,3-g]pyrido[2,1-a]isoquinoline-3-carboxylic acid] | 0.1 |
| COCC1(COC)COc2cc3c(cc2OC1)-c1cc(=O)c(C(=O)O)cn1C(C(C)(C)C)C3 (centres unmarked) [Example 99, 6-(Tert-butyl)-11,11-bis(methoxymethyl)-2-oxo-6,7,11,12-tetrahydro-2H,10H-[1,4]dioxepino[2,3-g]pyrido[2,1-a]isoquinoline-3-carboxylic] | 0.49 |
| Cc1c2n(cc(C(=O)O)c1=O)C(C(C)(C)C)Cc1cc3c(cc1-2)OCCCO3 (centres unmarked) [Example 100, 6-(Tert-butyl)-1-methyl-2-oxo-6,7,11,12-tetrahydro-2H,10H-[1,4]dioxepino[2,3-g]pyrido[2,1-a]isoquinoline-3-carboxylic acid] | 10 |
| C=C1COc2cc3c(cc2OC1)-c1cc(=O)c(CO)cn1C(C(C)(C)C)C3 (centres unmarked) [Example 101, 6-(Tert-butyl)-3-(hydroxymethyl)-1-methylene-6,7,11,12-tetrahydro-2H,10H-[1,4]dioxepino[2,3-g]pyrido[2,1-a]isoquinolin-2-one] | 5.8 |
| COC1COc2cc3c(cc2OC1)-c1cc(=O)c(C(=O)O)cn1C(C(C)(C)C)C3 (centres unmarked) [Example 102, 6-(Tert-butyl)-11-methoxy-2-oxo-6,7,11,12-tetrahydro-2H,10H-[1,4]dioxepino[2,3-g]pyrido[2,1-a]isoquinoline-3-carboxylic acid] | 0.18 |
| CC(C)(C)C1Cc2cc3c(cc2-c2cc(=O)c(C(=O)O)cn21)OCC(O)CO3 (centres unmarked) [Example 103, 6-(Tert-butyl)-11-hydroxy-2-oxo-6,7,11,12-tetrahydro-2H,10H-[1,4]dioxepino[2,3-g]pyrido[2,1-a]isoquinoline-3-carboxylic acid] | 0.05 |
| COc1nc2c(cc1Cl)-c1cc(=O)c(C(=O)O)cn1C(C(C)C)CO2 (centres unmarked) [Example 104, 2-Chloro-7-isopropyl-3-methoxy-11-oxo-6,7-dihydro-11H-dipyrido[1,2-d:3′,2′-f][1,4]oxazepine-10-carboxylic acid] | 24.2 |
| CCOP(=O)(OCC)c1cn2c(cc1=O)-c1cc(Cl)c(OCCCOC)cc1CC2C(C)(C)C (centres unmarked) [Example 105, Diethyl (6-(tert-butyl)-10-chloro-9-(3-methoxypropoxy)-2-oxo-6,7-dihydro-2H-pyrido[2,1-a]isoquinolin-3-yl)phosphonate] | 6.1 |
| CCOP(=O)(O)c1cn2c(cc1=O)-c1cc(Cl)c(OCCCOC)cc1CC2C(C)(C)C (centres unmarked) [Example 106, Ethyl hydrogen (6-(tert-butyl)-10-chloro-9-(3-methoxypropoxy)-2-oxo-6,7-dihydro-2H-pyrido[2,1-a]isoquinolin-3-yl)phosphonate] | 7.2 |
| COCCCOc1cc2c(cc1Cl)-c1cc(=O)c(P(=O)(O)O)cn1C(C(C)(C)C)C2 (centres unmarked) [Example 107, (6-(Tert-butyl)-10-chloro-9-(3-methoxypropoxy)-2-oxo-6,7-dihydro-2H-pyrido[2,1-a]isoquinolin-3-yl)phosphonic acid] | 2.5 |

| Compound | EC50 [µM] |
| --- | --- |
| COCCCOc1cc2c(nc1OC)-c1cc(=O)c(-c3nnc(C)s3)cn1[C@H](C(C)C)C2 [Example 108, (S)-6-Isopropyl-2-methoxy-3-(3-methoxypropoxy)-9-(5-methyl-1,3,4-thiadiazol-2-yl)-5,6-dihydro-10H-pyrido[1,2-h][1,7]naphthyridin-10-one] | 0.045 |
| COCCCOc1cc2c(nc1OC)-c1cc(=O)c(-c3n[nH]c(=S)[nH]3)cn1[C@H](C(C)C)C2 [Example 109, (S)-6-Isopropyl-2-methoxy-3-(3-methoxypropoxy)-9-(5-thioxo-4,5-dihydro-1H-1,2,4-triazol-3-yl)-5,6-dihydro-10H-pyrido[1,2-h][1,7]naphthyridin-10-one] | 0.029 |
| COCCCOc1cc2c(nc1OC)-c1cc(=O)c(-c3nnco3)cn1[C@H](C(C)C)C2 [Example 110, (S)-6-Isopropyl-2-methoxy-3-(3-methoxypropoxy)-9-(1,3,4-oxadiazol-2-yl)-5,6-dihydro-10-pyrido[1,2-h][1,7]naphthyridin-10-one] | 0.057 |
| COCCCOc1cc2c(nc1OC)-c1cc(=O)c(-c3nc(C)no3)cn1[C@H](C(C)C)C2 [Example 111, (S)-6-isopropyl-2-methoxy-3-(3-methoxypropoxy)-9-(3-methyl-1,2,4-oxadiazol-5-yl)-5,6-dihydro-10H-pyrido[1,2-h][1,7]naphthyridin-10-one] | 0.29 |
| COCCCOc1cc2c(nc1OC)-c1cc(=O)c(-c3nc(-c4ccccc4)no3)cn1[C@H](C(C)C)C2 [Example 112, (S)-6-Isopropyl-2-methoxy-3-(3-methoxypropoxy)-9-(3-phenyl-1,2,4-oxadiazol-5-yl)-5,6-dihydro-10H-pyrido[1,2-h][1,7]naphthyridin-10-one] | 0.87 |
| COCCCOc1cc2c(nc1OC)-c1cc(=O)c(C#N)cn1[C@H](C(C)C)C2 [Example 113, (S)-6-Isopropyl-2-methoxy-3-(3-methoxypropoxy)-10-oxo-5,10-dihydro-6H-pyrido[1,2-h][1,7]naphthyridine-9-carbonitrile] | 1 |
| COCCCOc1cc2c(cc1Cl)-c1cc(=O)c(-n3nn[nH]c3=O)cn1C(C(C)(C)C)C2 (centres unmarked) [Example 114, 6-(Tert-butyl)-10-chloro-9-(3-methoxypropoxy)-3-(5-oxo-4,5-dihydro-1H-tetrazol-1-yl)-6,7-dihydro-2H-pyrido [2,1-a]isoquinolin-2-one] | 3 |
| COCCCOc1cc2c(nc1OC)-c1cc(=O)c(-c3nnn[nH]3)cn1[C@H](C(C)C)C2 [Example 115, (S)-6-Isopropyl-2-methoxy-3-(3-methoxypropoxy)-9-(1H-tetrazol-5-yl)-5,6-dihydro-10H-pyrido[1,2-h][1,7]naphthyridin-10-one] | 0.09 |
| COCCCOc1cc2c(nc1OC)-c1cc(=O)c(-c3ncn[nH]3)cn1[C@H](C(C)C)C2 [Example 116, (S)-6-Isopropyl-2-methoxy-3-(3-methoxypropoxy)-9-(1H-1,2,4-triazol-5-yl)-5,6-dihydro-10H-pyrido[1,2-h][1,7]naphthyridin-10-one] | 0.009 |
| COCCCOc1cc2c(nc1OC)-c1cc(=O)c(C(=O)NO)cn1[C@H](C(C)C)C2 [Example 117, (S)—N-Hydroxy-6-isopropyl-2-methoxy-3-(3-methoxypropoxy)-10-oxo-5,10-dihydro-6H-pyrido[1,2-h][1,7]naphthyridine-9-carboxamide] | 0.054 |
| COCCCOc1cc2c(nc1OC)-c1cc(=O)c(C(=O)NS(C)(=O)=O)cn1[C@H](C(C)C)C2 [Example 118, (S)-6-Isopropyl-2-methoxy-3-(3-methoxypropoxy)-N-(methylsulfonyl)-10-oxo-5,10-dihydro-6H-pyrido[1,2-h][1,7]naphthyridine-9-carboxamide] | 0.051 |
| COCCCOc1cc2c(cc1Cl)-c1cc(=O)c(NC(=O)OC(C)(C)C)cn1C(C(C)(C)C)C2 (centres unmarked) [Example 119, Tert-butyl N-[6-tert-butyl-10-chloro-9-(3-methoxypropoxy)-2-oxo-6H,7H-pyrido[2,1-a]isoquinolin-3-yl]carbamate] | 0.14 |
| COCCCOc1cc2c(cc1Cl)-c1cc(=O)c(N)cn1C(C(C)(C)C)C2 (centres unmarked) [Example 120, 3-Amino-6-tert-butyl-10-chloro-9-(3-methoxypropoxy)-6H,7H-pyrido[2,1-a]isoquinolin-2-one hydrochloride] | 3.9 |
| COCCCOc1cc2c(cc1Cl)-c1cc(=O)c(NC(C)=O)cn1C(C(C)(C)C)C2 (centres unmarked) [Example 121, N-[6-Tert-butyl-10-chloro-9-(3-methoxypropoxy)-2-oxo-6H,7H-pyrido[2,1-a]isoquinolin-3-yl]acetamide] | 8.6 |
| COCCCOc1cc2c(cc1Cl)-c1cc(=O)c(NC(=O)OC)cn1C(C(C)(C)C)C2 (centres unmarked) [Example 122, Methyl N-[6-tert-butyl-10-chloro-9-(3-methoxypropoxy)-2-oxo-6H,7H-pyrido[2,1-a]isoquinolin-3-yl]carbamate] | 17 |
| COCCCOc1cc2c(cc1Cl)-c1cc(=O)c(NC(=O)OCc3ccccn3)cn1C(C(C)(C)C)C2 (centres unmarked) [Example 123, Pyridin-2-ylmethyl (6-(tert-butyl)-10-chloro-9-(3-methoxypropoxy)-2-oxo-6,7-dihydro-2H-pyrido[2,1-a]isoquinolin-3-yl)carbamate] | 2.4 |
